Measurements taken from article PMC4990177, “ABCB1 Overexpression Is a Key Initiator of Resistance to Tyrosine Kinase Inhibitors in CML Cell Lines” (PLoS ONE, 2016).

Assays:
K562 cells [1] = experiment: Cell viability assay, Annexin V/7-AAD, 72 h, K562 cells
Experimental: (§1) Cells were washed and resuspended in fresh culture media before culture in 24-well plates (Thermo Fisher Scientific, Waltham, MA, USA) in the presence of TKI at a density of 2×10^5 cells/mL. Plates were seeded with 1 mL of cell suspension in triplicate, placed in sterilised containers and incubated for 72 h before cell viability determination with 7-aminoactinomycin D (7-AAD; Invitrogen Life Technologies, Carlsbad, CA, USA) and Phycoerythrin (PE)-conjugated Annexin V antibody (BD Biosciences, Franklin Lakes, NJ, USA). Flow cytometric analysis was conducted with an FC500 flow cytometer (Beckman Coulter, Miami, FL, USA) and FCS Express 4 software (De Novo Software, Los Angeles, CA, USA).
Error bars represent SEM.

K562-Dox cells [2] = experiment: Cell viability assay, Annexin V/7-AAD, 72 h, K562-Dox cells
Experimental: as §1
Error bars represent SEM.

LYN mRNA = LYN mRNA expression by RQ-PCR in nilotinib resistant K562 cells; assay type: cell-based; details: K562 #6 NIL cells and later intermediates, duration of nilotinib escalation
K562-Dox cells [3] = experiment: % live cells during nilotinib dose escalation, K562-Dox resistance intermediates; assay type: cell-based
K562 cells [4] = experiment: % live cells during nilotinib dose escalation, K562 resistance intermediates; assay type: cell-based

## Cc1ccc(NC(=O)c2ccc(CN3CCN(C)CC3)cc2)cc1Nc1nccc(-c2cccnc2)n1 [imatinib]
K562 cells [1]; K562 #6 NIL cells, 5 μM imatinib
  survival (% live cells): 92%
K562 cells [1]; K562 #10 NIL cells, 5 μM imatinib
  survival (% live cells): 89%
K562 cells [1]; K562 control cells, 5 μM imatinib
  survival (% live cells): 29%
K562-Dox cells [2]; K562-Dox #5 NIL cells, 5 μM imatinib
  survival (% live cells): 79%
K562-Dox cells [2]; K562-Dox control cells, 5 μM imatinib
  survival (% live cells): 31%

## Cc1nc(Nc2ncc(C(=O)Nc3c(C)cccc3Cl)s2)cc(N2CCN(CCO)CC2)n1 [dasatinib]
K562 cells [1]; K562 #6 NIL cells, 500 nM dasatinib
  survival (% live cells): 74%
K562 cells [1]; K562 #10 NIL cells, 500 nM dasatinib
  survival (% live cells): 74%
K562 cells [1]; K562 control cells, 500 nM dasatinib
  survival (% live cells): 21%
K562-Dox cells [2]; K562-Dox #5 NIL cells, 100 nM dasatinib
  survival (% live cells): 60%
K562-Dox cells [2]; K562-Dox control cells, 100 nM dasatinib
  survival (% live cells): 5%

## Cc1cn(-c2cc(NC(=O)c3ccc(C)c(Nc4nccc(-c5cccnc5)n4)c3)cc(C(F)(F)F)c2)cn1 [nilotinib]
K562 cells [1]; K562 #6 NIL cells, 1000 nM nilotinib
  survival (% live cells): 87%
K562 cells [1]; K562 #10 NIL cells, 1000 nM nilotinib
  survival (% live cells): 85%
K562 cells [1]; K562 control cells, 1000 nM nilotinib
  survival (% live cells): 19%
LYN mRNA
  LYN mRNA increase compared with control cells: 15–18 fold
K562-Dox cells [3]; K562-Dox intermediate #1, cultured in 15 nM NIL, 11 days in culture
  % Live Cells: 99.6%
K562-Dox cells [3]; K562-Dox intermediate #2, cultured in 30 nM NIL, 10 days in culture
  % Live Cells: 96.9%
K562-Dox cells [3]; K562-Dox intermediate #3, cultured in 60 nM NIL, 11 days in culture
  % Live Cells: 98.5%
K562-Dox cells [3]; K562-Dox intermediate #4, cultured in 100nM NIL, 12 days in culture
  % Live Cells: 91.3%
K562-Dox cells [3]; K562-Dox intermediate #5, cultured in 125 nM NIL, 81 days in culture
  % Live Cells: 73.6%
K562-Dox cells [3]; K562-Dox intermediate #6, cultured in 200 nM NIL, 16 days in culture
  % Live Cells: 76.6%
K562-Dox cells [3]; K562-Dox intermediate #7, cultured in 1 μM NIL, 19 days in culture
  % Live Cells: 75.8%
K562-Dox cells [3]; K562-Dox intermediate #8, cultured in 2 μM NIL, continuous culture
  % Live Cells: 90.7%
K562 cells [4]; K562 intermediate #1, cultured in 15 nM NIL, 10 days in culture
  % Live Cells: 95.0%
K562 cells [4]; K562 intermediate #2, cultured in 25 nM NIL, 11 days in culture
  % Live Cells: 99.1%
K562 cells [4]; K562 intermediate #3, cultured in 50 nM NIL, 10 days in culture
  % Live Cells: 96.7%
K562 cells [4]; K562 intermediate #4, cultured in 75 nM NIL, 14 days in culture
  % Live Cells: 93.7%
K562 cells [4]; K562 intermediate #5, cultured in 100 nM NIL, 12 days in culture
  % Live Cells: 94.6%
K562 cells [4]; K562 intermediate #6, cultured in 125 nM NIL, 28 days in culture (prolonged exposure)
  % Live Cells: ~ 80%
K562 cells [4]; K562 intermediate #6, cultured in 125 nM NIL, 28 days in culture (prolonged exposure), listed as NIL
  % Live Cells: 83.6%
K562 cells [4]; K562 intermediate #7, cultured in 140 nM NIL, 17 days in culture
  % Live Cells: 87.4%
K562 cells [4]; K562 intermediate #8, cultured in 300 nM NIL, 12 days in culture
  % Live Cells: 93.3%
K562 cells [4]; K562 intermediate #9, cultured in 400 nM NIL, 14 days in culture
  % Live Cells: 90.8%
K562 cells [4]; K562 intermediate #10, cultured in 2 μM NIL, continuous culture
  % Live Cells: 94.1%
K562-Dox cells [2]; K562-Dox #5 NIL cells, 1000 nM nilotinib
  survival (% live cells): 74%
K562-Dox cells [2]; K562-Dox control cells, 1000 nM nilotinib
  survival (% live cells): 8%
